Values quoted from earlier work as cited in patent US5897876A, “Emulsified drug delivery system” (Shire Laboratories Inc., priority 1997, dated 1999).

System: peptide transport
Conditions: in other vehicles; "known"

Compound	promote peptide transport
CCCCC/C=C\C/C=C\CCCCCCCC(=O)O [linoleic acid]	known to promote peptide transport in other vehicles
CCCCCCCC/C=C\CCCCCCCC(=O)O [oleic acid]	known to promote peptide transport in other vehicles
